Like-named read-outs stand apart in the source and are kept apart here.
Columns and labels:
CYP1A2 = target: T1, CYP1A2 (Homo sapiens, UniProt P05177); assay: Inhibition of recombinant CYP1A2 (probe phenacetin); type: in vitro ADME
T1 construct: purchased Corning Biosciences 456203
T1 sequence (P05177 1-516): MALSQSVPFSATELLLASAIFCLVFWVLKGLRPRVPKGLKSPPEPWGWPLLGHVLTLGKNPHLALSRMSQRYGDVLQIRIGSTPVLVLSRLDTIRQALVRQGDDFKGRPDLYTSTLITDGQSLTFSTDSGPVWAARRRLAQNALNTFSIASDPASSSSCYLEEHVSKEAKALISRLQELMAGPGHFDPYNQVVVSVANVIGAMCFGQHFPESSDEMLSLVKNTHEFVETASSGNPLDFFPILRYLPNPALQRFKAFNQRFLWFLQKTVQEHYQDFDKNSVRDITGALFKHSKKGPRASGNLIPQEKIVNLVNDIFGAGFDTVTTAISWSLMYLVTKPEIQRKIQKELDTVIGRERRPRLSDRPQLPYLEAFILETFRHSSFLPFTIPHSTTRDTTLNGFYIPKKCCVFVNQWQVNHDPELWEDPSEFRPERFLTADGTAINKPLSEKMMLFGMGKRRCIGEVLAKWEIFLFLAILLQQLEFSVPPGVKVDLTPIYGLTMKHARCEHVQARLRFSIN
Protocol: (§1) In this study, phenacetin (100 μM), coumarin (100 μM), bupropion (100 μM), paclitaxel (60 μM), tolbutamide (200 μM), mephenytoin (100 μM), chlorzoxazone (200 μM) and nifedipine (40 μM) have been used as the probe substrates for CYP1A2, 2A6, 2B6, 2C8, 2C9, 2C19, 2E1 and 3A4, respectively.

CYP2C9 = CYP2C9 (Homo sapiens, UniProt P11712); assay: Inhibition of recombinant CYP2C9 (probe tolbutamide); type: in vitro ADME
Protocol: as §1

CYP2E1 = CYP2E1 (Homo sapiens, UniProt P05181); assay: Inhibition of recombinant CYP2E1 (probe chlorzoxazone)
Protocol: Phase I incubation system (100 μL) contained Tris–HCl buffer (50 mM, pH = 7.4), MgCl2 (5 mM), each CYP isozyme, specific substrates, circulating compounds and NADPH (1 mM) as prescribed previously. After incubation (37 °C, 60 min), the reaction was terminated by ice-cold acetonitrile (100 μL), following by centrifugation at 13,800g for 10 min. The supernatant (8 μL) was acquired for ultra-high-performance liquid chromatography (UHPLC) system (Waters, Manchester, UK) analysis.
After optimization of incubation conditions (Additional file 1: Fig. S1), the substrates were incubated with each CYP isozyme at different protein concentrations (0.05 mg/mL for CYP1A2 and 3A4; 0.1 mg/mL for CYP2A6, 2B6, 2C8, 2C9, 2C19 and 2E1) in the absence (control) and presence of different mixture or herbal compounds (Kang-Ai injection and samples that Kang-Ai injection was diluted 10 times; 1, 10, and 100 μM for matrine and oxymatrine; 0.1, 1, 10 and 100 μM for astragalosides and ginsenosides).
The half-inhibition concentration (IC50) values were determined by non-linear regression analysis. […] The inhibition mechanism towards corresponding CYP and UGT isoforms were further explored.
The inhibition constant (Ki) values were obtained by multiple concentrations of substrates in the absence or presence of multiple concentrations of herbal compounds as described previously. […] (1)–(3), respectively. The model with the smallest Akaike information criterion (AIC) and Schwartz information criterion (SC) values was considered as the best model, following the obtained appropriate Ki values. Model fitting and parameter estimation were performed using Graphpad Prism V5 software (SanDiego, CA).

[1] = Stability tests of analytes in rat plasma QC samples; type: in vitro ADME; conditions: rat plasma
Protocol: […] The dilution integrity was investigated by analyzing six replicate samples with each analyte, and each analyte were diluted 10-fold with blank rat matrix. Furthermore, the diluted samples were analyzed using freshly prepared calibration curve to calculate RE and RSD, which should be no more than ± 15% as criterion.

Chain of CYP2C9 (P11712 whole entry): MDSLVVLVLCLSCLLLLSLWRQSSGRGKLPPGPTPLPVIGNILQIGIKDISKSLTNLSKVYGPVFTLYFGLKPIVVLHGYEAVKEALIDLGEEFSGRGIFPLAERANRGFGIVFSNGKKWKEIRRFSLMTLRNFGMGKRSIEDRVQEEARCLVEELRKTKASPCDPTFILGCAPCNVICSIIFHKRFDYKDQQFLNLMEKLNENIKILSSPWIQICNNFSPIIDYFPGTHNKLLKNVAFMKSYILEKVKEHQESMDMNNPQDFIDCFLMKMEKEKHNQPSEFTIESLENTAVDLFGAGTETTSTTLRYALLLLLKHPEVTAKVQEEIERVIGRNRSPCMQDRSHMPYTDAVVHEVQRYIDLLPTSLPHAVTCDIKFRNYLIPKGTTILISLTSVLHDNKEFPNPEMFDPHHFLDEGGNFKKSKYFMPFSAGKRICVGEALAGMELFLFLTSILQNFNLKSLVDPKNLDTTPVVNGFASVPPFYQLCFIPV
Chain of CYP2E1 (P05181 whole entry): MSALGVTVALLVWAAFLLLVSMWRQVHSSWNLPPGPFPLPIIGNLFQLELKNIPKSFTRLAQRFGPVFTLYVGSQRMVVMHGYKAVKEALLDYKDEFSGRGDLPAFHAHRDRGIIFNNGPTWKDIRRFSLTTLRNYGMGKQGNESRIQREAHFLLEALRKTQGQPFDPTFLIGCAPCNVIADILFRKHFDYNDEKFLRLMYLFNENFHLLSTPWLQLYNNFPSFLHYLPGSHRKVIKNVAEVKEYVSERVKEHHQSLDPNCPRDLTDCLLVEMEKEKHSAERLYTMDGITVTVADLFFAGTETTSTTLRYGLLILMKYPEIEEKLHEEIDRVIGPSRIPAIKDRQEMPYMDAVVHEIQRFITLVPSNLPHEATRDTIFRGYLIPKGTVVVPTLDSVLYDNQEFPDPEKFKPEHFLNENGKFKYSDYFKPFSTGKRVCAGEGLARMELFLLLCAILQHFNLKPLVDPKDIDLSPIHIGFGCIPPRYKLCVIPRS

Compound	IC50 (CYP2E1)	At -80 °C for 48 h, Mean±SD ([1]; nominal conc. 20 nM)	At -80 °C for 48 h, RE ([1]; nominal conc. 20 nM)	Extracted samples at 8 °C for 18 h, Mean±SD ([1]; nominal conc. 20 nM)	Extracted samples at 8 °C for 18 h, RE ([1]; nominal conc. 20 nM)	Short-term stability at room temperature for 6 h, Mean±SD ([1]; nominal conc. 20 nM)	Short-term stability at room temperature for 6 h, RE ([1]; nominal conc. 20 nM)	Three freeze-thaw cycles (-80 °C ↔ 23 °C), Mean±SD ([1]; nominal conc. 20 nM)	Three freeze-thaw cycles (-80 °C ↔ 23 °C), RE ([1]; nominal conc. 20 nM)	At -80 °C for 48 h, Mean±SD ([1]; nominal conc. 100 nM)	At -80 °C for 48 h, RE ([1]; nominal conc. 100 nM)	Extracted samples at 8 °C for 18 h, Mean±SD ([1]; nominal conc. 100 nM)	Extracted samples at 8 °C for 18 h, RE ([1]; nominal conc. 100 nM)	Short-term stability at room temperature for 6 h, Mean±SD ([1]; nominal conc. 100 nM)	Short-term stability at room temperature for 6 h, RE ([1]; nominal conc. 100 nM)	Three freeze-thaw cycles (-80 °C ↔ 23 °C), Mean±SD ([1]; nominal conc. 100 nM)	Three freeze-thaw cycles (-80 °C ↔ 23 °C), RE ([1]; nominal conc. 100 nM)	At -80 °C for 48 h, Mean±SD ([1]; nominal conc. 400 nM)	At -80 °C for 48 h, RE ([1]; nominal conc. 400 nM)	Extracted samples at 8 °C for 18 h, Mean±SD ([1]; nominal conc. 400 nM)	also measured
O=C1CCC[C@@H]2[C@H]3CCCN4CCC[C@@H](CN12)[C@@H]34 [Compound A1, Matrine]	> 100 µM	21.33 ± 1.64 nM	10.69%	21.75 ± 0.99 nM	13.23%	20.84 ± 0.75 nM	8.05%	20.11 ± 1.97 nM	-9.75%	106.76 ± 6.22 nM	13.15%	95.18 ± 2.64 nM	-7.17%	100.30 ± 2.84 nM	3.05%	104.44 ± 12.01 nM	14.16%	394.46 ± 17.47 nM	-6.06%	402.13 ± 26.43 nM	IC50 (CYP1A2): > 100 µM; IC50 (CYP2C9): > 100 µM; Extracted samples at 8 °C for 18 h, RE ([1]; nominal conc. 400 nM): 7.87%; Short-term stability at room temperature for 6 h, Mean±SD ([1]; nominal conc. 400 nM): 420.24 ± 21.99 nM; Short-term stability at room temperature for 6 h, RE ([1]; nominal conc. 400 nM): 11.33%; Three freeze-thaw cycles (-80 °C ↔ 23 °C), Mean±SD ([1]; nominal conc. 400 nM): 415.19 ± 9.89 nM; Three freeze-thaw cycles (-80 °C ↔ 23 °C), RE ([1]; nominal conc. 400 nM): 5.94%
CC(C)=CCC[C@](C)(O[C@@H]1O[C@H](CO[C@@H]2O[C@H](CO)[C@@H](O)[C@H](O)[C@H]2O)[C@@H](O)[C@H](O)[C@H]1O)[C@H]1CC[C@]2(C)[C@@H]1[C@H](O)C[C@@H]1[C@@]3(C)CC[C@H](O[C@@H]4O[C@H](CO)[C@@H](O)[C@H](O)[C@H]4O[C@@H]4O[C@H](CO)[C@@H](O)[C@H](O)[C@H]4O)C(C)(C)[C@@H]3CC[C@]12C [Compound D5, Ginsenoside Rb1]	> 100 µM	20.64 ± 1.63 nM	8.70%	17.96 ± 0.32 nM	-11.74%	20.30 ± 1.81 nM	9.00%	19.99 ± 1.88 nM	-10.85%	94.32 ± 8.04 nM	-13.46%	101.02 ± 12.87 nM	-13.83%	91.65 ± 3.42 nM	-12.30%	108.29 ± 6.26 nM	12.24%	428.49 ± 29.97 nM	12.25%	409.55 ± 29.87 nM	IC50 (CYP1A2; recombinant isozyme, mean ± SD of triplicate, unit not given (IC50 classes in μM), read-out: IC50 towards CYP1A2): > 100 µM; inhibition type (smallest AIC and SC) (CYP2C9; CYP2C9): Noncompetitive inhibition; Ki (CYP2C9; CYP2C9, competitive model): 8.2 ± 1 µM; Ki (CYP2C9; CYP2C9, mixed-type model): 18.8 ± 4.3 µM; α (CYP2C9; CYP2C9, mixed-type model): 0.7 ± 0.3; Ki (CYP2C9; CYP2C9, noncompetitive model): 16.1 ± 0.9 µM; Cmax/Ki ([I]/Ki) (CYP2C9; CYP2C9, selected model, rat plasma Cmax): 0.03; IC50 (CYP2C9; recombinant isozyme, mean ± SD of triplicate, unit not given (IC50 classes in μM), read-out: IC50 towards CYP2C9): 8.8 ± 3.2 µM; IC50 (CYP2C9; tolbutamide 200 μM, read-out: IC50 towards CYP2C9): 8.81 µM; Extracted samples at 8 °C for 18 h, RE ([1]; nominal conc. 400 nM): 9.12%; Short-term stability at room temperature for 6 h, Mean±SD ([1]; nominal conc. 400 nM): 388.96 ± 18.81 nM; Short-term stability at room temperature for 6 h, RE ([1]; nominal conc. 400 nM): -6.00%; Three freeze-thaw cycles (-80 °C ↔ 23 °C), Mean±SD ([1]; nominal conc. 400 nM): 441.95 ± 3.33 nM; Three freeze-thaw cycles (-80 °C ↔ 23 °C), RE ([1]; nominal conc. 400 nM): 11.44%

— article PMC7339578, “Multiple circulating alkaloids and saponins from intravenous Kang-Ai injection inhibit human cytochrome P450 and UDP-glucuronosyltransferase isozymes: potential drug–drug interactions” (Chinese Medicine, 2020)
